Assay results as given in paper PMC12350473, “Pharmacokinetics and brain tissue distribution of Gastrodia elata extract in normal and cerebral ischemic rats: a comparative study” (Frontiers in Pharmacology, 2025).

Experiments:
in vivo = details: male, Sprague-Dawley, rat, po
[1] = Plasma pharmacokinetics of GEB constituents after oral GEB extract in normal and MCAO rats (UPLC-MS/MS, non-compartmental); details: for AUC0-t / Tmax / AUC0−∞ / CLz/F / Cmax / MRT0-t / T1/2 / Vz/F: plasma
[2] = Brain tissue distribution of GEB constituents after oral GEB extract in normal and MCAO rats; assay type: in vivo
Protocol: An independent cohort (n = 6/group) was sacrificed under deep anesthesia (pentobarbital sodium 40 mg/kg, i. p.) at 0.5 h, 1 h, 3 h, and 12 h post-final dosing. Cerebral perfusion was performed with ice-cold normal saline via left ventricular cannulation to eliminate residual blood. Whole brains were rapidly excised, weighed, and homogenized in four volumes of phosphate-buffered saline (pH 7.4) using a tissue grinder (Precellys 24, Bertin Technologies, France). Homogenates were centrifuged at 12,000 × g for 15 min at 4°C. The supernatants were filtered through 0.22 μm PVDF membranes and aliquoted into polypropylene tubes.
Weigh 300 mg of rat brain tissue and add 3 volumes of PBS solution. […] Collect the supernatant to obtain the test tissue homogenate. Take 400 µL of the homogenate, add 50 µL of internal standard solution and 1,150 µL of methanol, then vortex-mix for 5 min.

[3] = test system: cerebral ischemia in rats; test: Therapeutic effect of GEB extract on cerebral ischemia (MCAO): mNSS, body weight, survival, TTC staining; assay type: in vivo; details: vs MCAO group, GEB low and high dose, nimodipine control
Protocol: High-dose GEB extract was prepared by adding 4.8 g of GEB extract in 40 mL of purified water to make a 120 mg/mL solution (calculated based on the human daily intake of 48 g of GEB).
The low dose of GEB was prepared by adding 2 g of GEB extract in 40 mL of purified water to make a 50 mg/mL solution (calculated based on the human daily intake of 20 g of GEB).
For preparing positive drugs, 2 nimodipine tablets (30 mg/tablet) were ground and added to 50 mL of purified water to make a 1.2 mg/mL solution (calculated based on the human daily intake of 120 mg of nimodipine).
After induction of deep anesthesia with pentobarbital (40 mg/kg), the rats were euthanized by cervical dislocation, followed by decapitation for brain removal. The brains were immediately flash-frozen in a freezer for 20 min. Then, the olfactory bulb and cerebellum were removed, the brain was cut into 6 coronal sections from anterior to posterior, stained with 1% TTC solution in the dark for 20 min at 37°C, and preserved in 4% paraformaldehyde for 30 min.
Rats were allocated into five groups: sham-operated (Sham), MCAO, low-dose GEB extract (GEB-L), high-dose GEB extract (GEB-H), and nimodipine control (NMDP). […] Longitudinal monitoring included body weight tracking and survival assessment, complemented by triphenyltetrazolium chloride (TTC) staining for cerebral infarction evaluation at study termination.

[4] = set-up: method as in Tang et al., 2015; details: ref Tang et al., 2015; cited from earlier work
[5] = MCAO rats, GEB extract 1,200 mg/kg oral gavage once daily for 3 days
[6] = MCAO rats, oral GEB extract 4.8 g/kg, n = 8
[7] = comparison among components after oral GEB extract
[8] = MCAO vs normal rats, range over PA, PB, PC, GAS, p < 0.05
[9] = normal rats, oral GEB extract 4.8 g/kg, n = 8

| Compound | AUC0-t (in vivo; plasma, 4.8 g/kg) [ng·h/mL] | AUC(0-inf) (in vivo; plasma, 4.8 g/kg) [ng·h/mL] | CL/F (in vivo; plasma, 4.8 g/kg) [mL/min/kg] | Cmax (in vivo; plasma, 4.8 g/kg) [ng/mL] | MRT last (in vivo; plasma, 4.8 g/kg) [h] | Tmax (in vivo; plasma, 4.8 g/kg) [h] | half-life (in vivo; plasma, 4.8 g/kg) [h] | AUC0-t [1, 5] | AUC0-t [1, 6] | AUC0−∞ [1, 6] | CLz/F [1, 6] [mL/min/kg] | Cmax [1, 6] | MRT0-t [1, 6] [h] | T1/2 [1, 6] [h] | Tmax [1, 6] [h] | Vz/F [1, 6] | BBB penetration / cerebral distribution (in words) [2, 7] | Vz/F [1, 9] [L/kg] | further results |
| --- | --- | --- | --- | --- | --- | --- | --- | --- | --- | --- | --- | --- | --- | --- | --- | --- | --- | --- | --- |
| N[C@@H](CCC(=O)N[C@@H](CSCc1ccc(O)cc1)C(=O)NCC(=O)O)C(=O)O [4-HBG, S-(4-hydroxybenzyl) glutathione] | 113 ± 37.7 | 120 ± 37 | 1090 | 24.1 ± 8.4 | 4.18 ± 0.51 | 3.5 ± 0.93 | 2.27 ± 1.14 | 129 ± 53 ng·h/mL | 124.8 ± 51.3 ng·h/mL | 129.1 ± 52.8 ng·h/mL | 1050 ± 367 | 24.6 ± 11.2 ng/mL | 4.37 ± 0.50 | 2.03 ± 0.24 | 3.75 ± 0.71 | 186.8 ± 73.0 L/kg | – | – | AUC0-t (in vivo; plasma, 1200 mg/kg): 120 ± 37 ng·h/mL; Tmax (in vivo; plasma, 1200 mg/kg): 2.3 ± 1.1 h; Vd/F (in vivo; plasma, 4.8 g/kg): 212 ± 102 L/kg; Tmax ([1]; MCAO rats, GEB extract oral): 2.03 ± 0.2 h |
| OCc1ccc(O[C@@H]2O[C@H](CO)[C@@H](O)[C@H](O)[C@H]2O)cc1 [GAS, gastrodin] | – | – | – | – | – | – | – | 4,836 ± 791 ng*h/mL | 4,835.6 ± 790.9 ng*h/mL | 4,914.0 ± 728.3 ng*h/mL | 53.3 ± 8.3 | 4,646.2 ± 1,195.9 ng/mL | 0.88 ± 0.20 | 0.58 ± 0.29 | 0.27 ± 0.16 | 2.7 ± 1.6 L/kg | limited BBB penetration | – | AUC0-t (in vivo; in vivo, 1200 mg/kg): 6620 ng·h/mL; Cmax (in vivo; in vivo, 1200 mg/kg): 6620 ng/mL; AUC0-t (in vivo; in vivo, 4.8 g/kg): 6620 ng·h/mL; AUC(0-inf) (in vivo; in vivo, 4.8 g/kg): 6690 ng·h/mL; CL/F (in vivo; in vivo, 4.8 g/kg): 38.3 mL/min/kg; Cmax (in vivo; in vivo, 4.8 g/kg): 6620 ng/mL; MRT last (in vivo; in vivo, 4.8 g/kg): 0.83 ± 0.06 h; Tmax (in vivo; in vivo, 4.8 g/kg): 0.31 ± 0.12 h; Vd/F (in vivo; in vivo, 4.8 g/kg): 2 ± 0.2 L/kg; half-life (in vivo; in vivo, 4.8 g/kg): 0.6 ± 0.07 h; cerebral concentration ([2]; normal rats, brain tissue, GEB extract oral): < 40 ng/mL; Cmax ([1]; MCAO rats, GEB extract 1,200 mg/kg oral once daily for 3 days): 4,646 ± 1,195 ng/mL; CLz/F increase in MCAO rats compared to controls [1, 8]: 1.4–2.0 fold |
| OCc1ccc(O)cc1 [HBA, 4-hydroxybenzyl alcohol] | – | – | – | – | – | – | – | – | – | – | – | – | – | – | – | – | – | – | concentration in rats (in words) ([1]; rats after oral GEB extract): very low |
| COCCOC(=O)C1=C(C)NC(C)=C(C(=O)OC(C)C)C1c1cccc([N+](=O)[O-])c1 (centres unmarked) [NMDP, nimodipine] | – | – | – | – | – | – | – | – | – | – | – | – | – | – | – | – | – | – | therapeutic effect on neurological deterioration, weight loss and infarction [3]: improved these outcomes |
| O=C(CC(O)(CC(=O)OCc1ccc(O[C@@H]2O[C@H](CO)[C@@H](O)[C@H](O)[C@H]2O)cc1)C(=O)OCc1ccc(O[C@@H]2O[C@H](CO)[C@@H](O)[C@H](O)[C@H]2O)cc1)OCc1ccc(O[C@@H]2O[C@H](CO)[C@@H](O)[C@H](O)[C@H]2O)cc1 [PA, Parishin A] | 148 ± 21.9 | 153 ± 23.5 | 8150 | 79.8 ± 9.8 | 1.26 ± 0.09 | 0.94 ± 0.18 | 0.74 ± 0.1 | – | 75.4 ± 29.3 ng·h/mL | 85.9 ± 25.0 ng·h/mL | – | 41.5 ± 18.5 ng/mL | 1.33 ± 0.27 | 1.41 ± 1.75 | 0.78 ± 0.31 | 1706.9 ± 1891.6 L/kg | superior BBB permeability | 518.7 ± 88.3 | CLz/F increase in MCAO rats compared to controls ([1]; rat, in vivo): 1.4–2.0 fold; average GAS molecules released per parent compound [4]: 1.5; conversion efficiency of partial hydrolysis in vivo [4]: 50% |
| O=C(O)CC(O)(CC(=O)OCc1ccc(O[C@@H]2O[C@H](CO)[C@@H](O)[C@H](O)[C@H]2O)cc1)C(=O)OCc1ccc(O[C@@H]2O[C@H](CO)[C@@H](O)[C@H](O)[C@H]2O)cc1 (some centres unmarked) [PB, Parishin B] | 215 ± 37.4 | 230 ± 50.9 | 2790 | – | 1.42 ± 0.13 | 1 | – | – | 108.0 ± 48.8 ng·h/mL | 123.7 ± 38.8 ng·h/mL | 5497 ± 1755 | 48.8 ± 22.9 ng/mL | 1.63 ± 0.53 | 2.16 ± 2.76 | 0.72 ± 0.31 | 1,034.1 ± 1,468.2 L/kg | superior BBB permeability | 237.9 ± 98.4 | Cmax [1, 9]: 112.8 ± 22.8 ng/mL; T1/2 [1, 9]: 1.01 ± 0.42 h; CLz/F increase in MCAO rats compared to controls ([1]; rat, in vivo): 1.4–2.0 fold |
| O=C(CC(O)(CC(=O)OCc1ccc(O[C@@H]2O[C@H](CO)[C@@H](O)[C@H](O)[C@H]2O)cc1)C(=O)O)OCc1ccc(O[C@@H]2O[C@H](CO)[C@@H](O)[C@H](O)[C@H]2O)cc1 [PC, Parishin C] | 56.4 ± 16.2 | 71.1 ± 18.5 | 1740 | 21.5 ± 5.8 | 1.78 ± 0.3 | 0.94 ± 0.5 | 1.84 ± 0.56 | – | 30.1 ± 9.6 ng·h/mL | 41.5 ± 15.7 ng·h/mL | 3078 ± 1070 | 12.1 ± 4.6 ng/mL | 1.68 ± 0.29 | 2.35 ± 2.08 | 1.13 ± 0.35 | 543.6 ± 442.8 L/kg | – | 266.7 ± 78.4 | BBB penetration / cerebral distribution (in words) ([2]; rat, in vivo, po): superior BBB permeability; CLz/F increase in MCAO rats compared to controls [1, 8]: 1.4–2.0 fold |
| O=C(O)CC(O)(CC(=O)OCc1ccc(O[C@@H]2O[C@H](CO)[C@@H](O)[C@H](O)[C@H]2O)cc1)C(=O)O (some centres unmarked) [PE, Parishin E] | 1210 | 1310 | 697 | 375 ± 45.5 | 2.41 ± 0.33 | 1.13 ± 0.35 | 1.82 ± 1.13 | 1,148 ± 530 ng*h/mL | 1,107.5 ± 517.6 ng*h/mL | 1,147.5 ± 530.4 ng*h/mL | – | 324.9 ± 129.0 ng/mL | 2.68 ± 0.76 | 1.95 ± 1.03 | 1.25 ± 0.46 | 113.9 ± 64.2 L/kg | moderate cerebral distribution | – | AUC0-t (in vivo; plasma, 1200 mg/kg): 1310 ng·h/mL; Vd/F (in vivo; plasma, 4.8 g/kg): 78.6 ± 24.2 L/kg; concentration at 12 h ([2]; male, Sprague-Dawley, rat, brain, oral, 1200 mg/kg, MCAO rats, 12 h post-final dosing): 4.25 ± 2.46 ng/g |
